Test results published in patent US10857136B2, “Compounds for use in the prevention and/or treatment of non-alcoholic fat liver disease and non-alcoholic steatohepatitis” (SJT MOLECULAR RESEARCH, SL, priority 2017, dated 2020).

System: DIO-NASH mice (C57Bl/6J male mice)
Assay: NAFLD activity score (NAS) of liver biopsies pre and post study in DIO-NASH mice
Type: in vivo
Settings: 50 mg/kg, p.o., b.i.d., 8 weeks, score range 0-8
Experimental: Non-alcoholic fat liver disease (NAFLD) activity score or NAS was evaluated by measurements of steatosis, lobular inflammation, ballooning degeneration and […] of the liver.
Total NAS score represents the sum of scores for steatosis, inflammation, and ballooning, and ranges from 0-8 as follows:
The % of steatosis degree refers to the amount of surface area of the sample involved by steatosis as evaluated on low to medium power examination.
The value given to measure inflammation corresponds to the number of inflammatory foci per field using a 200× magnification. A focus is defined as a cluster, not a row, of >3 inflammatory cells. Acidophil bodies are not included in the inflammatory assessment.
The ballooning degeneration value is measured by the amount of balloon cells, corresponding to degenerated hepatocytes with cleared cytoplasm, enlargement, swelling, rounding and reticulated cytoplasm. […]
Liver samples were fixed in formalin, paraffin embedded, and sections were stained with hematoxylin and eosin (H&E) and Sirius Red. Samples are scored for NAS and fibrosis using of the clinical criteria outlined by Kleiner et al. 2005. […]

COc1ccc(-c2nc(C(=O)NCCN)cc3c2[nH]c2ccccc23)cc1 [Compound 4a, N(-ethylamine)-1-benzosubstituted-β-carboline-3-carboxamide]
NAS score change of the liver biopsy pre and post study: generally reduced the NAS score
